Measured values published in ChEMBL document CHEMBL1201862, “PubChem BioAssay data set” (2004).
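The compound was tested at five concentrations on cells cultured in 96-well plates, with a 48-hour exposure period. GI50 = concentration required for 50% inhibition of growth.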 The source made the active and inactive calls. No stated cut-off is given here; in the data, active = GI50 up to about 1.1 µM and inactive = higher.

Assays:
Assay in all cases: inhibition of tumour cell growth, NCI panel, 48 h
HT-29 = system: HT-29
OVCAR-8 = system: OVCAR-8
OVCAR-3 = system: OVCAR-3
DMS-273 = system: DMS-273
SK-OV-3 = system: SK-OV-3
CCRF-CEM = system: CCRF-CEM
Malme-3M = system: Malme-3M
U-251 = system: U-251
OVCAR-5 = system: OVCAR-5
OVCAR-4 = system: OVCAR-4
XF498 = system: XF498
SNB-78 = system: SNB-78
NCI-H23 = system: NCI-H23
SK-MEL-5 = system: SK-MEL-5
HOP-62 = system: HOP-62
SK-MEL-2 = system: SK-MEL-2
TK-10 = system: TK-10
K562 = system: K562
NCI-H226 = system: NCI-H226
EKVX = system: EKVX
HOP-92 = system: HOP-92
HCT-15 = system: HCT-15
ACHN = system: ACHN
SF-295 = system: SF-295
NCI-H522 = system: NCI-H522
M14 = system: M14
LOX IMVI = system: LOX IMVI
786-0 = system: 786-0
SNB-75 = system: SNB-75
UACC-257 = system: UACC-257
RPMI-8226 = system: RPMI-8226
SF-539 = system: SF-539
NCI-H460 = system: NCI-H460
SK-MEL-28 = system: SK-MEL-28
M19-MEL = system: M19-MEL
HCT-116 = system: HCT-116
A498 = system: A498
UACC-62 = system: UACC-62
IGROV-1 = system: IGROV-1
SN12C = system: SN12C
DLD-1 = system: DLD-1
SF-268 = system: SF-268
A549 = system: A549
LXFL 529 = system: LXFL 529
UO-31 = system: UO-31
MOLT-4 = system: MOLT-4
SR = system: SR
KM-20L2 = system: KM-20L2
RXF 393 = system: RXF 393
HL-60 = system: HL-60
HCC 2998 = system: HCC 2998
DMS-114 = system: DMS-114
SNB-19 = system: SNB-19
SW-620 = system: SW-620
COLO 205 = system: COLO 205
KM12 = system: KM12
CAKI-1 = system: CAKI-1

Question: What does the source list for O=S1(=O)OCCOS(=O)(=O)C1(Br)Cc1ccccc1?
Answer: GI50 (HT-29): > 100 µM (inactive); GI50 (OVCAR-8): > 100 µM (inactive); GI50 (OVCAR-3): > 100 µM (inactive); GI50 (DMS-273): > 100 µM (inactive); GI50 (SK-OV-3): > 100 µM (inactive); GI50 (CCRF-CEM): > 100 µM (inactive); GI50 (Malme-3M): > 100 µM (inactive); GI50 (U-251): > 100 µM (inactive); GI50 (OVCAR-5): > 100 µM (inactive); GI50 (OVCAR-4): > 100 µM (inactive); GI50 (XF498): > 100 µM (inactive); GI50 (SNB-78): > 100 µM (inactive); GI50 (NCI-H23): > 100 µM (inactive); GI50 (SK-MEL-5): > 100 µM (inactive); GI50 (HOP-62): > 100 µM (inactive); GI50 (SK-MEL-2): > 100 µM (inactive); GI50 (TK-10): > 100 µM (inactive); GI50 (K562): > 100 µM (inactive); GI50 (NCI-H226): > 100 µM (inactive); GI50 (EKVX): > 100 µM (inactive); GI50 (HOP-92): > 100 µM (inactive); GI50 (HCT-15): > 100 µM; GI50 (ACHN): > 100 µM (inactive); GI50 (SF-295): > 100 µM (inactive); GI50 (NCI-H522): > 100 µM (inactive); GI50 (M14): > 100 µM (inactive); GI50 (LOX IMVI): > 100 µM (inactive); GI50 (786-0): > 100 µM (inactive); GI50 (SNB-75): 33 µM (inactive); GI50 (UACC-257): > 100 µM (inactive); GI50 (RPMI-8226): > 100 µM (inactive); GI50 (SF-539): > 100 µM (inactive); GI50 (NCI-H460): > 100 µM (inactive); GI50 (SK-MEL-28): > 100 µM (inactive); GI50 (M19-MEL): > 100 µM (inactive); GI50 (HCT-116): > 100 µM (inactive); GI50 (A498): > 100 µM (inactive); GI50 (UACC-62): > 100 µM (inactive); GI50 (IGROV-1): > 100 µM (inactive); GI50 (SN12C): > 100 µM (inactive); GI50 (DLD-1): > 100 µM (inactive); GI50 (SF-268): > 100 µM (inactive); GI50 (A549): > 100 µM (inactive); GI50 (LXFL 529): > 100 µM (inactive); GI50 (UO-31): > 100 µM (inactive); GI50 (MOLT-4): > 100 µM (inactive); GI50 (SR): > 100 µM (inactive); GI50 (KM-20L2): > 100 µM (inactive); GI50 (RXF 393): > 100 µM (inactive); GI50 (HL-60): > 100 µM (inactive); GI50 (HCC 2998): > 100 µM (inactive); GI50 (DMS-114): > 100 µM (inactive); GI50 (SNB-19): > 100 µM (inactive); GI50 (SW-620): > 100 µM (inactive); GI50 (COLO 205): > 100 µM (inactive)

Question: For CC1=NN(C(=O)Cc2ccccc2)C(=O)/C1=C\c1ccc(O)cc1, which GI50 (HT-29) is on record?
Answer: Its GI50 is > 100 µM (inactive).

Question: What about the GI50 (OVCAR-8) of the same compound?
Answer: The GI50 was > 100 µM (inactive).

Question: And the GI50 (OVCAR-3)?
Answer: The GI50 was > 100 µM (inactive).

Question: And the GI50 (SK-OV-3)?
Answer: The GI50 was > 100 µM (inactive).

Question: And the GI50 (CCRF-CEM)?
Answer: Its GI50 is > 100 µM (inactive).

Question: And the GI50 (Malme-3M)?
Answer: The GI50 was > 100 µM (inactive).

Question: And the GI50 (U-251)?
Answer: Its GI50 is > 100 µM (inactive).

Question: What about the GI50 (OVCAR-5) of the same compound?
Answer: The GI50 was > 100 µM (inactive).

Question: And the GI50 (OVCAR-4)?
Answer: Its GI50 is > 100 µM (inactive).

Question: What about the GI50 (XF498) of the same compound?
Answer: Its GI50 is > 100 µM (inactive).

Question: What about the GI50 (SNB-78) of the same compound?
Answer: The GI50 was 36.8 µM (inactive).

Question: And the GI50 (NCI-H23)?
Answer: Its GI50 is > 100 µM (inactive).

Question: What about the GI50 (SK-MEL-5) of the same compound?
Answer: Its GI50 is > 100 µM (inactive).

Question: And the GI50 (HOP-62)?
Answer: The GI50 was > 100 µM (inactive).

Question: What about the GI50 (SK-MEL-2) of the same compound?
Answer: Its GI50 is > 100 µM (inactive).

Question: And the GI50 (KM12)?
Answer: The GI50 was > 100 µM (inactive).

Question: And the GI50 (TK-10)?
Answer: Its GI50 is > 100 µM (inactive).

Question: What about the GI50 (K562) of the same compound?
Answer: Its GI50 is > 100 µM (inactive).

Question: And the GI50 (NCI-H226)?
Answer: Its GI50 is > 100 µM (inactive).

Question: What about the GI50 (EKVX) of the same compound?
Answer: Its GI50 is > 100 µM (inactive).

Question: And the GI50 (HOP-92)?
Answer: Its GI50 is > 100 µM (inactive).

Question: And the GI50 (HCT-15)?
Answer: Its GI50 is greater than 100 µM.

Question: And the GI50 (ACHN)?
Answer: The GI50 was > 100 µM (inactive).

Question: And the GI50 (SF-295)?
Answer: Its GI50 is > 100 µM (inactive).

Question: And the GI50 (NCI-H522)?
Answer: Its GI50 is > 100 µM (inactive).

Question: What about the GI50 (M14) of the same compound?
Answer: Its GI50 is > 100 µM (inactive).

Question: What about the GI50 (LOX IMVI) of the same compound?
Answer: Its GI50 is > 100 µM (inactive).

Question: And the GI50 (786-0)?
Answer: The GI50 was > 100 µM (inactive).

Question: What about the GI50 (UACC-257) of the same compound?
Answer: Its GI50 is > 100 µM (inactive).

Question: And the GI50 (RPMI-8226)?
Answer: Its GI50 is > 100 µM (inactive).

Question: And the GI50 (SF-539)?
Answer: The GI50 was > 100 µM (inactive).

Question: And the GI50 (NCI-H460)?
Answer: The GI50 was > 100 µM (inactive).

Question: And the GI50 (SK-MEL-28)?
Answer: The GI50 was > 100 µM (inactive).

Question: And the GI50 (M19-MEL)?
Answer: Its GI50 is > 100 µM (inactive).

Question: And the GI50 (HCT-116)?
Answer: Its GI50 is > 100 µM (inactive).

Question: And the GI50 (A498)?
Answer: Its GI50 is > 100 µM (inactive).

Question: And the GI50 (UACC-62)?
Answer: Its GI50 is > 100 µM (inactive).

Question: What about the GI50 (IGROV-1) of the same compound?
Answer: Its GI50 is > 100 µM (inactive).

Question: What about the GI50 (SN12C) of the same compound?
Answer: Its GI50 is > 100 µM (inactive).

Question: What about the GI50 (CAKI-1) of the same compound?
Answer: Its GI50 is > 100 µM (inactive).

Question: And the GI50 (DLD-1)?
Answer: Its GI50 is > 100 µM (inactive).

Question: What about the GI50 (SF-268) of the same compound?
Answer: The GI50 was > 100 µM (inactive).

Question: What about the GI50 (A549) of the same compound?
Answer: Its GI50 is > 100 µM (inactive).

Question: What about the GI50 (LXFL 529) of the same compound?
Answer: The GI50 was > 100 µM (inactive).

Question: And the GI50 (UO-31)?
Answer: Its GI50 is > 100 µM (inactive).

Question: And the GI50 (MOLT-4)?
Answer: The GI50 was > 100 µM (inactive).

Question: And the GI50 (KM-20L2)?
Answer: The GI50 was > 100 µM (inactive).

Question: And the GI50 (RXF 393)?
Answer: The GI50 was > 100 µM (inactive).

Question: What about the GI50 (HL-60) of the same compound?
Answer: The GI50 was > 100 µM (inactive).

Question: And the GI50 (HCC 2998)?
Answer: The GI50 was > 100 µM (inactive).

Question: What about the GI50 (DMS-114) of the same compound?
Answer: The GI50 was > 100 µM (inactive).

Question: What about the GI50 (SNB-19) of the same compound?
Answer: Its GI50 is > 100 µM (inactive).

Question: What about the GI50 (SW-620) of the same compound?
Answer: Its GI50 is > 100 µM (inactive).

Question: What about the GI50 (COLO 205) of the same compound?
Answer: The GI50 was > 100 µM (inactive).
